Assay results from patent US20240331158A1, “CELL PAINTING AND ANALYSIS IN 3D CELLULAR MODELS” (priority 2023, published 2024).
pEC50: −log10 of the molar value. Structures can show the parent of a compound that is named as a salt. Where two headings read alike, the source gives them in different places. *1 amine or outer side, *2 acyl side, *3 side chain or, on linkers, in order; H or OH if unused. Where a SMILES comes first, the peptide text is derived from it. Bridges are numbered along the chain shown (N, C = ends). Roman numbers before positions name the chains, in order. [ ]: non-standard residue; d: D form. Actinocin(9to1) = Cc1c2oc3c(C)ccc(C(=O)[*:1])c3nc-2c(C(=O)[*:2])c(N)c1=O; NMeV = CN[C@H](C(=O)O)C(C)C; Sar = CNCC(=O)O

What was measured:
TU-BcX-4IC tumoroids [1] = test: Library screening of NCI approved anti-cancer drugs: tumoroid integrity/disintegration by nuclear count in projection images (viability/spheroid disintegration assay); conditions: for minimal effective concentration: Homo sapiens, TU-BcX-4IC, 120 h; for Viability HIT?: also hit in viability/spheroid disintegration assay, 10 μM
Description: In addition, positive and negative controls were included in the test plates.
During incubation with compounds, tumoroids were monitored daily using TL imaging. Image analysis allowed characterization of tumoroid size, diameter, compactness, and integrity, as well as optical density (FIG. 2B, FIG. 7). Images of tumoroids were taken prior to compound treatment, and during day 3 and day 5 of compound treatment. For the end point assay, tumoroids were stained with viability and nuclear dyes on day 5 of compound treatment. Cells were stained with a combination of Hoechst, calcein AM, and Ethidium Homodimer III (EthD-III) and analyzed using high content imaging for complex phenotypic analysis; a subset of plates was set aside for additional assays including Cell Painting.
Images of organoids were taken with a 10× objective using Z-stack with a step size of 8 mm. Nuclei, live cells, and dead cells of stained cells were detected using DAPI, FITC, and TexasRed channels respectively. Maximum projection images were created from Z-stacks and analyzed as described in Methods. Multiple read-outs were generated characterizing spheroid area, diameter, intensities, and cell viability. In addition, cells inside each spheroid were counted using a nuclear stain. […] Suspended cells were plated into U-shape 384 well plates using a Biomek i7 automated liquid handler, incubated for 48 hours, and then treated with compounds, stained, and imaged. The protocols for compound additions, media, and staining included gentle media dispensing processes. Consecutively, tumoroids were cultured and monitored by automated imaging. Additionally, use of a collaborative robot enabled moving plates from the incubator to the imaging system, where transmitted light imaging or fluorescent imaging protocols were initiated.
For screening the compound library, maximum projection images may be employed. Spheroid disintegration is visible as an increase of spheroid size, in contrast to nicely shaped, round images of intact spheroids. Tumoroid disintegration can be described by several measurements: for example, increase in organoid area/diameter. Most accurate measurements may be done by counting cells or nuclei inside organoids using maximum projection images. […] Disintegrated tumoroids are made up of cells which are not held together in a tight aggregate but instead are loosely piled up in the well bottom resulting in 1) an increased projected area and 2) an increase in nuclear count in the projection images.
Simple nuclei count analysis in projection images was used as a reliable surrogate marker for organoid integrity/dis-integration.

TU-BcX-4IC tumoroids [2] = test: Cell Painting assay adapted for 3D tumoroids, phenotypic distance score and cluster analysis; conditions: 10 μM, phenotypic distance relative to DMSO controls
Description: For phenotypic profiling, the tumoroids were treated with a single 10 μM concentration of compound, using the methods described above. Notable changes in the staining protocol included increased times for dye incubation, fixation, and permeabilization. […] Images were acquired with Z-stacks using 20× magnification, and the analysis was carried out on projection (maximum) images.
Unlike the previous analysis that included cell count or live-dead evaluation, multiple read-outs may be collected from the whole spheroid to form their phenotypic profile. […] Instead, the spheroid images may also acquired in transmitted light (bright field), and these images may be used to identify the spheroid structures using a deep learning-based image segmentation approach which may improve the analysis. Features extracted from each spheroid may include object morphologies, intensities, and texture measurements for, e.g., the six cell stains and bright field images.
To determine hits from the assay, a phenotypic distance score may be calculated based on the PCA (principal component analysis) components.
This score is a measure of the phenotypic effect of the compounds on the tumoroids relative to the controls. All hits may then be clustered based on their phenotypic profiles using the normalized principal component scores.
To image the organoids labeled with the cell painting dyes, the ImageXpress Confocal HT.ai system, equipped with a laser light source, was used for image acquisition. The confocal mode (pinhole size 60 μm) was used to image organoids with a 20× Plan Apo Lambda, NA 0.75 objective, with z-stacking enabled (5p m step size). The maximum projection image was selected in the acquisition setup.
Images were analyzed using MetaXpress Software (Molecular Devices). […] For the Cell Painting analysis, image analysis was done in the IN Carta image analysis software. To segment the organoids, a deep learning-based model was created based on the TL channel to segment individual organoids. Following segmentation, measurements that include intensity, shape, area, and texture were extracted from all 6 fluorescent channels. In total, 210 analytical features were obtained from each organoid.
The plate was first incubated with MitoTracker DeepRed (500 nM) for 2 hours. The samples were fixed with 4% paraformaldehyde (PFA) in HBSS for 60 minutes. All wash steps were carried out by exchanging half the volume in each well with HBSS to minimize displacement of the organoids from the center of the well.
Measurements from IN Carta were exported as a CSV file and uploaded into StratoMineR (Core Life Analytica), a web-based data analytics platform for hit picking and phenotypic clustering.

TU-BcX-4IC 3D cultures [3] = test: CellTiter-Glo 3D ATP assay, 3D culture; conditions: for pEC50: Homo sapiens, TU-BcX-4IC, 120 h, read-out: EC50, ATP 3D
Description: (§1) Cell metabolism may be measured by ATP level as another readout for effects of anti-cancer drugs that is related to cytotoxicity. […] Compounds may be tested using 7 point 5× dilutions starting from 100 uM. In the present examples, compound effects on 2D culture and 3D cultures were compared, using imaging and CellTiter-Glo 3D methods. Cultures were set up in parallel, using same cell number (2000). Cultures were allowed to grow for 48 hours, then treated with compounds for 5 days.

TU-BcX-4IC 2D culture [4] = test: CellTiter-Glo 3D ATP assay, 2D culture; conditions: for pEC50: Homo sapiens, TU-BcX-4IC, 120 h, read-out: EC50, ATP 2D
Description: as §1

TU-BcX-4IC 3D cultures [5] = test: Imaging read-out, 3D culture; conditions: Homo sapiens, 120 h, read-out: EC50, Imaging 3D
Description: (§2) Cell metabolism may be measured by ATP level as another readout for effects of anti-cancer drugs that is related to cytotoxicity. In the present examples, a subset of 12 compounds were used for evaluation of compound effects, using the CellTiter-Glo 3D assay (Promega), which detects ATP levels. Compounds may be tested using 7 point 5× dilutions starting from 100 uM. In the present examples, compound effects on 2D culture and 3D cultures were compared, using imaging and CellTiter-Glo 3D methods. Cultures were set up in parallel, using same cell number (2000). Cultures were allowed to grow for 48 hours, then treated with compounds for 5 days.
(§3) Images were analyzed using MetaXpress Software (Molecular Devices). Count Nuclei or Cell Scoring application modules were used for nuclear count live/dead assessment, or evaluation of cell number positive for specific markers. Output measurements included spheroid width, spheroid area, average intensity for calcein AM or EthD-III, counts of all nuclei, and evaluation of average nuclear size and average intensities. In addition, calcein AM-positive cells were counted, and their area and intensity values were recorded. In addition to cell count, areas and intensities could be determined for live (EthD-III negative) and dead (EthD-III positive) cells.

TU-BcX-4IC 2D culture [6] = test: Imaging read-out, 2D culture; conditions: Homo sapiens, 120 h, read-out: EC50, Imaging 2D
Description: as §2, §3

TU-BcX-4IC tumoroids [7] = test: Secondary follow-up 3D assay, 7-point concentration curves, tumoroid disintegration measurement; assay type: cell-based, human; conditions: 3D assay, 7-point concentration curves, 5 days, nuclear count in projection images; for pEC50: read-out: EC50
Description: 10 compounds, including panobinostat, carfilzomib, and bortezomib were tested across 7 concentrations in the 1-10000 nM range. Spheroids were treated for 5 days with these compounds, then stained as described above (FIG. 4). […] EC50 values (Table 2) were determined using tumoroid disintegration measurement (nuclear count in projection images).
Automated staining of spheroids was performed for one hour. After staining, dye solution was replaced with 1×PBS.

[8] = read-out: Effective concentration
[9] = read-out: Effective concentration, 3D tumoroids, 5 days treatment, tumoroid integrity by nuclear count, tested at 10 nM to 100 uM
[10] = Homo sapiens, TU-BcX-4IC, 120 h

Molecule	minimal effective concentration (TU-BcX-4IC tumoroids [1]; [9]) [µM]	Distance Score (TU-BcX-4IC tumoroids [2])	Viability HIT? (TU-BcX-4IC tumoroids [1])	other results
Oc1ncc(N(CCCl)CCCl)c(O)n1 [Uracil mustard]				minimal effective concentration (TU-BcX-4IC tumoroids [1]; [8]): 1 µM
CO[C@@]12[C@H](COC(N)=O)C3=C(C(=O)C(C)=C(N)C3=O)N1C[C@@H]1N[C@@H]12 [Mitomycin]	1			
CCN1CCN(Cc2ccc(Nc3ncc(F)c(-c4cc(F)c5nc(C)n(C(C)C)c5c4)n3)nc2)CC1 [Abemaciclib]		5.819		
Cc1cnc(Nc2ccc(OCCN3CCCC3)cc2)nc1Nc1cccc(S(=O)(=O)NC(C)(C)C)c1 [Fedratinib]	1			
Cc1c2oc3c(C)ccc(C(=O)N[C@@H]4C(=O)N[C@H](C(C)C)C(=O)N5CCC[C@H]5C(=O)N(C)CC(=O)N(C)[C@@H](C(C)C)C(=O)O[C@@H]4C)c3nc-2c(C(=O)N[C@@H]2C(=O)N[C@H](C(C)C)C(=O)N3CCC[C@H]3C(=O)N(C)CC(=O)N(C)[C@@H](C(C)C)C(=O)O[C@@H]2C)c(N)c1=O [Dactinomycin] (I: T[dV]P[Sar][NMeV] / II: T[dV]P[Sar][NMeV]; ester I:1-I:C, II:1-II:C; linker I:N-II:N via Actinocin(9to1))				pEC50 (TU-BcX-4IC 3D cultures [3]): 8.30; pEC50 (TU-BcX-4IC 2D culture [4]): > 8.00; pEC50 (TU-BcX-4IC 3D cultures [5]): 7.48; Efficacy at low concentrations (TU-BcX-4IC tumoroids [1]; library screen, tumoroid integrity by nuclear count): efficacy at low concentrations; pEC50 (TU-BcX-4IC 2D culture [6]): > 8.00
O=C(Nc1cnn2ccc(N3CCC[C@@H]3c3cc(F)ccc3F)nc12)N1CC[C@H](O)C1 [Larotrectinib]		5.667	no	
C[C@]12CC[C@@H]3c4ccc(O)cc4C[C@@H](CCCCCCCCC[S+]([O-])CCCC(F)(F)C(F)(F)F)[C@H]3[C@@H]1CC[C@@H]2O (stereo partly shown) [Fulvestrant]	0.01			
CC[C@]1(O)C[C@H]2CN(CCc3c([nH]c4ccccc34)[C@@](C(=O)OC)(c3cc4c(cc3OC)N(C=O)[C@H]3[C@@](O)(C(=O)OC)[C@H](OC(C)=O)[C@]5(CC)C=CCN6CC[C@]43[C@@H]65)C2)C1 [Vincristine sulfate]	0.1			
C=CC(=O)Nc1cc(Nc2nccc(-c3cn(C)c4ccccc34)n2)c(OC)cc1N(C)CCN(C)C [Osimertinib]		5.241	yes	
CC(C)C[C@H](NC(=O)CNC(=O)c1cc(Cl)ccc1Cl)B1OC(=O)C(CC(=O)O)(CC(=O)O)O1 [Ixazomib citrate]	0.1			
O=C(CCCCCCC(=O)Nc1ccccc1)NO [Vorinostat]	1	5.079	no	
CNC(=O)c1cc(Oc2ccc(NC(=O)Nc3ccc(Cl)c(C(F)(F)F)c3)c(F)c2)ccn1 [Regorafenib]	0.1			
CC(C)C[C@H](NC(=O)[C@H](CCc1ccccc1)NC(=O)CN1CCOCC1)C(=O)N[C@@H](Cc1ccccc1)C(=O)N[C@@H](CC(C)C)C(=O)[C@@]1(C)CO1 [Carfilzomib]		5.007	no	pEC50 (TU-BcX-4IC 3D cultures [3]): 5.24; pEC50 (TU-BcX-4IC 2D culture [4]): 5.98; pEC50 (TU-BcX-4IC 3D cultures [5]): 7.14; pEC50 (TU-BcX-4IC 2D culture [6]): 5.98
COc1cc(Nc2c(C#N)cnc3cc(OCCCN4CCN(C)CC4)c(OC)cc23)c(Cl)cc1Cl [Bosutinib]	0.1			
Cc1nc(Nc2ncc(C(=O)Nc3c(C)cccc3Cl)s2)cc(N2CCN(CCO)CC2)n1 [Dasatinib]	0.1			
CCN(CC)CCNC(=O)c1c(C)[nH]c(/C=C2\C(=O)Nc3ccc(F)cc32)c1C [Sunitinib]				pEC50 (TU-BcX-4IC tumoroids [7]; [10]): 5.77
C[C@@H](Oc1cc(-c2cnn(C3CCNCC3)c2)cnc1N)c1c(Cl)ccc(F)c1Cl [Crizotinib]				pEC50 (TU-BcX-4IC tumoroids [7]; [10]): < 6.00
CC(=O)[C@]1(O)Cc2c(O)c3c(c(O)c2[C@@H](O[C@H]2C[C@H](N)[C@H](O)[C@H](C)O2)C1)C(=O)c1ccccc1C3=O [Idarubicin hydrochloride]	1			pEC50 (TU-BcX-4IC 3D cultures [3]): 6.84; pEC50 (TU-BcX-4IC 2D culture [4]): 7.17; pEC50 (TU-BcX-4IC 3D cultures [5]): 5.41; pEC50 (TU-BcX-4IC 2D culture [6]): ~6.00
Clc1ccc(C(c2ccccc2Cl)C(Cl)Cl)cc1 (stereo not shown) [Mitotane]	0.1			
O=C(/C=C/c1cccc(S(=O)(=O)Nc2ccccc2)c1)NO [Belinostat]	0.1	5.348	yes	

Molecule	minimal effective concentration (TU-BcX-4IC tumoroids [1]; [9]) [µM]	Distance Score (TU-BcX-4IC tumoroids [2])	Viability HIT? (TU-BcX-4IC tumoroids [1])	other results
Cc1ccc(-c2cc(C(F)(F)F)nn2-c2ccc(S(N)(=O)=O)cc2)cc1 [Celecoxib]				EC50 (TU-BcX-4IC tumoroids [7]): no effect
O=C(/C=C\n1cnc(-c2cc(C(F)(F)F)cc(C(F)(F)F)c2)n1)NNc1cnccn1 [Selinexor]		5.004	no	
CC(=O)O[C@H]1C(=O)[C@@]2(C)[C@H]([C@H](OC(=O)c3ccccc3)[C@]3(O)C[C@H](OC(=O)[C@H](O)[C@@H](NC(=O)c4ccccc4)c4ccccc4)C(C)=C1C3(C)C)[C@]1(OC(C)=O)CO[C@@H]1C[C@@H]2O [Paclitaxel]	1			pEC50 (TU-BcX-4IC tumoroids [7]; [10]): 5.54
CN1CCN(c2ccc(C(=O)Nc3n[nH]c4ccc(Cc5cc(F)cc(F)c5)cc34)c(NC3CCOCC3)c2)CC1 [Entrectinib]		4.843	yes	
Cn1cc(-c2cc3c(N4CCN(c5ncc([C@@](C)(N)c6ccc(F)cc6)cn5)CC4)ncnn3c2)cn1 [Avapritinib]		5.386	no	
COC(=O)N[C@@H](C)CNc1nccc(-c2cn(C(C)C)nc2-c2cc(Cl)cc(NS(C)(=O)=O)c2F)n1 [Encorafenib]		5.516	no	
Cc1ccc(C(=O)Nc2ccc(CN3CCN(C)CC3)c(C(F)(F)F)c2)cc1C#Cc1cnc2cccnn12 [Ponatinib]				minimal effective concentration (TU-BcX-4IC tumoroids [1]; [8]): 0.1 µM
COc1cccc2c1C(=O)c1c(O)c3c(c(O)c1C2=O)C[C@@](O)(C(=O)CO)C[C@@H]3O[C@H]1C[C@H](N)[C@@H](O)[C@H](C)O1 [Epirubicin hydrochloride]	1	5.883		
Cc1nc(NC(=O)N2CCC[C@H]2C(N)=O)sc1-c1ccnc(C(C)(C)C(F)(F)F)c1 [Alpelisib]		5.834	yes	
C=CC(=O)N1CCC[C@@H](n2nc(-c3ccc(Oc4ccccc4)cc3)c3c(N)ncnc32)C1 [Ibrutinib]				pEC50 (TU-BcX-4IC 3D cultures [3]): 4.80; pEC50 (TU-BcX-4IC 2D culture [4]): 4.60; pEC50 (TU-BcX-4IC 3D cultures [5]): ~4.70; pEC50 (TU-BcX-4IC 2D culture [6]): 4.69
CN(C)C/C=C/C(=O)Nc1cc2c(Nc3ccc(F)c(Cl)c3)ncnc2cc1O[C@H]1CCOC1 [Afatinib]		5.047		
CCCCC(=O)OCC(=O)[C@]1(O)Cc2c(O)c3c(c(O)c2[C@@H](O[C@H]2C[C@H](NC(=O)C(F)(F)F)[C@H](O)[C@H](C)O2)C1)C(=O)c1c(OC)cccc1C3=O [Valrubicin]		8.136	yes	
CC[C@]1(O)C[C@@H]2CN(CCc3c([nH]c4ccccc34)[C@@](C(=O)OC)(c3cc4c(cc3OC)N(C)[C@H]3[C@@](O)(C(=O)OC)[C@H](OC(C)=O)[C@]5(CC)C=CCN6CC[C@]43[C@@H]65)C2)C1 [Vinblastine sulfate]	0.1			
COc1cc(N2CCC(N3CCN(C)CC3)CC2)ccc1Nc1ncc(Cl)c(Nc2ccccc2P(C)(C)=O)n1 [Brigatinib]	1	5.771		
Dabrafenib mesylate		6.249	yes	
CC1(C)CCC(CN2CCN(c3ccc(C(=O)NS(=O)(=O)c4ccc(NCC5CCOCC5)c([N+](=O)[O-])c4)c(Oc4cnc5[nH]ccc5c4)c3)CC2)=C(c2ccc(Cl)cc2)C1 [Venetoclax]	1	4.922		
COc1cc2c(Nc3ccc(Br)cc3F)ncnc2cc1OCC1CCN(C)CC1 [Vandetanib]	1	5.185		
CCc1nc(C(N)=O)c(Nc2ccc(N3CCC(N4CCN(C)CC4)CC3)c(OC)c2)nc1NC1CCOCC1 [Gilteritinib]	1	5.239		
COC(=O)C[C@](O)(CCCC(C)(C)O)C(=O)O[C@@H]1C(OC)=C[C@]23CCCN2CCc2cc4c(cc2[C@H]13)OCO4 [Omacetaxine]				pEC50 (TU-BcX-4IC tumoroids [7]): > 7.00; Effective concentration (TU-BcX-4IC tumoroids [1]; 3D tumoroids, 5 days treatment, tumoroid integrity by nuclear count, tested at 10 nM to 100 uM): 1 µM
CO[C@H]1C[C@@H]2CC[C@@H](C)[C@@](O)(O2)C(=O)C(=O)N2CCCC[C@H]2C(=O)O[C@H]([C@H](C)C[C@@H]2CC[C@@H](OC(=O)C(C)(CO)CO)[C@H](OC)C2)CC(=O)[C@H](C)/C=C(\C)[C@@H](O)[C@@H](OC)C(=O)[C@H](C)C[C@H](C)/C=C/C=C/C=C/1C [Temsirolimus]	1	5.699	no	EC50, ATP 3D (TU-BcX-4IC 3D cultures [3]; 3D culture, 2000 cells, 5 days treatment, CellTiter-Glo 3D): no fit; EC50, ATP 2D (TU-BcX-4IC 2D culture [4]; 2D culture, 2000 cells, 5 days treatment, CellTiter-Glo 3D): no fit; pEC50 (TU-BcX-4IC 3D cultures [5]): 5.07; pEC50 (TU-BcX-4IC 2D culture [6]): 5.00
